Assay results published in patent US4459290A, “C-23-Modified derivatives of OMT, pharmaceutical compositions and method of use” (priority 1982, dated 1984).
In brackets after ≈: the same amount, converted by molar mass. Like-named read-outs stand apart in the source and are kept apart here.

Columns and labels:
Escherichia coli EC14 = experiment: MIC, standard agar-dilution assay (Table V); format: cell-based; conditions: Escherichia coli
Method in brief: (§1)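 Growth inhibition in liquid medium, in a routine microtiter broth-dilution series, gave the MIC against staphylococci and pasteurellae; the gram-negative enteric strain was tested by conventional agar dilution instead.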

Escherichia coli N10 = experiment: MIC, standard agar-dilution assay (Table V); format: cell-based; conditions: Escherichia coli
Method in brief: as §1

[1] = test system: Klebsiella pneumoniae KAE; experiment: MIC, standard agar-dilution assay (Table V); format: cell-based; conditions: Klebsiella pneumoniae
Method in brief: as §1

[2] = test system: Klebsiella pneumoniae X26; experiment: MIC, standard agar-dilution assay (Table V); format: cell-based; conditions: Klebsiella pneumoniae, X26
Protocol: (§2) Especially noteworthy is the improved activity against gram-negative bacteria for several derivatives when compared to the activity of OMT. […] The MIC's in Tables V and VI were determined by standard agar-dilution assays. The MIC's in Table VII were obtained using a conventional broth-dilution microtiter test.

Shigella sonnei N9 = experiment: MIC, standard agar-dilution assay (Table V); format: cell-based
Method in brief: as §1

[3] = test system: Staphylococcus aureus S13E; experiment: MIC, standard agar-dilution assay (Table V); format: cell-based; conditions: Staphylococcus aureus, S13E
Protocol: as §2

[4] = test system: Staphylococcus aureus V41; experiment: MIC, standard agar-dilution assay (Table V); format: cell-based; conditions: Staphylococcus aureus
Protocol: as §2

[5] = test system: Staphylococcus aureus X1.1; experiment: MIC, standard agar-dilution assay (Table V); format: cell-based; conditions: Staphylococcus aureus, X1.1
Protocol: as §2

[6] = test system: Staphylococcus aureus X400; experiment: MIC, standard agar-dilution assay (Table V); format: cell-based; conditions: Staphylococcus aureus
Protocol: as §2

[7] = test system: Staphylococcus epidermidis EPI1; experiment: MIC, standard agar-dilution assay (Table V); format: cell-based; conditions: Staphylococcus epidermidis
Protocol: as §2

[8] = test system: Staphylococcus epidermidis EPI2; experiment: MIC, standard agar-dilution assay (Table V); format: cell-based; conditions: Staphylococcus epidermidis; S. epidermidis EPI2; agar dilution; read-out: MIC
Protocol: as §2

Streptococcus Group 9960 = experiment: MIC, standard agar-dilution assay (Table V); format: cell-based; conditions: GROUP9960
Protocol: as §2

[9] = test system: Streptococcus Group D X66; experiment: MIC, standard agar-dilution assay (Table V); format: cell-based
Protocol: as §2

Escherichia coli TEM = experiment: MIC, standard agar-dilution assay (Table V); format: cell-based; conditions: Escherichia coli
Protocol: (§3) The MIC's in Tables V and VI were determined by standard agar-dilution assays. The MIC's in Table VII were obtained using a conventional broth-dilution microtiter test.

[10] = test system: Haemophilus influenzae Holt; experiment: MIC, standard agar-dilution assay (Table V); format: cell-based; conditions: Haemophilus influenzae
Protocol: as §3

[11] = test system: Haemophilus influenzae R252; experiment: MIC, standard agar-dilution assay (Table V); format: cell-based; conditions: Haemophilus influenzae, R252
Protocol: as §3

[12] = test system: Streptococcus pyogenes C203; experiment: MIC, standard agar-dilution assay (Table V); format: cell-based; conditions: Streptococcus pyogenes
Protocol: as §3

Mycoplasma gallisepticum = experiment: MIC, broth-dilution microtiter test (Table VII); format: cell-based; conditions: Mycoplasmoides gallisepticum
Protocol: as §2

Mycoplasma hyorhinis = experiment: MIC, broth-dilution microtiter test (Table VII); format: cell-based
Protocol: as §2

Mycoplasma synoviae = experiment: MIC, broth-dilution microtiter test (Table VII); format: cell-based; conditions: Mycoplasmopsis synoviae
Protocol: as §2

[13] = test system: Pasteurella hemolytica 22C; experiment: MIC, broth-dilution microtiter test (Table VII); format: cell-based; conditions: Pasteurella, P. hemolytica 22C, read-out: MIC
Method in brief: (§4)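 Each MIC derives from a dilution series, either on solid agar (Enterobacter aerogenes) or in liquid broth within microtiter plates (staphylococcal and Pasteurella strains).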

[14] = test system: Pasteurella hemolytica 23C; experiment: MIC, broth-dilution microtiter test (Table VII); format: cell-based; conditions: Pasteurella, P. hemolytica 23C, read-out: MIC
Method in brief: as §4

[15] = test system: Pasteurella hemolytica 41D; experiment: MIC, broth-dilution microtiter test (Table VII); format: cell-based; conditions: Pasteurella, P. hemolytica 41D, read-out: MIC
Method in brief: as §4

[16] = test system: Pasteurella multocida 17E; experiment: MIC, broth-dilution microtiter test (Table VII); format: cell-based; conditions: Pasteurella multocida
Method in brief: as §1

[17] = test system: Pasteurella multocida 22A; experiment: MIC, broth-dilution microtiter test (Table VII); format: cell-based; conditions: Pasteurella multocida
Method in brief: as §1

[18] = test system: Pasteurella multocida 40G; experiment: MIC, broth-dilution microtiter test (Table VII); format: cell-based; conditions: Pasteurella multocida
Method in brief: as §1

[19] = test system: Pasteurella multocida 60A; experiment: MIC, broth-dilution microtiter test (Table VII); format: cell-based; conditions: Pasteurella multocida
Method in brief: as §1

[20] = test system: Pasteurella multocida 68C; experiment: MIC, broth-dilution microtiter test (Table VII); format: cell-based; conditions: Pasteurella multocida
Method in brief: as §1

Staphylococcus aureus = experiment: MIC, broth-dilution microtiter test (Table VII); format: cell-based; conditions: Staphylococcus aureus
Method in brief: as §1

Streptococcus sp. 80 = experiment: MIC, broth-dilution microtiter test (Table VII); format: cell-based; conditions: Streptococcus sp. 80; broth-dilution microtiter; read-out: MIC
Protocol: as §2

[21] = test system: Streptococcus pyogenes C203; experiment: ED50 in mice experimentally infected with S. pyogenes C203 (Table VIII); format: in vivo
Protocol: The C-23 modified derivatives of OMT of this invention have shown in vivo antimicrobial activity against experimental infections. When two doses of test compound were administered to mice experimentally infected with a gram-positive bacterium, S. pyogenes C203, the activity observed was measured as an ED50 value [effective dose in mg/kg to protect 50% of the test animals: see Warren Wick, et al., J. Bacteriol. 81, 233-235 (1961)].

these strains = experiment: Activity against the strains of Table VI, agar-dilution; format: cell-based; conditions: at the levels tested
Protocol: as §2

[22] = test system: Streptococcus pneumoniae Park I; experiment: microbe, parasite or virus in culture; format: cell-based; conditions: Streptococcus pneumoniae; S. pneumoniae Park I; agar dilution; read-out: MIC
Protocol: as §2

[23] = M. gallisepticum, broth-dilution microtiter, read-out: MIC
[24] = P. multocida 17E, bovine isolate, broth-dilution microtiter, read-out: MIC
[25] = P. multocida 22A, broth-dilution microtiter, read-out: MIC
[26] = P. multocida 40G, broth-dilution microtiter, read-out: MIC
[27] = P. multocida 60A, avian isolate, broth-dilution microtiter, read-out: MIC
[28] = P. multocida 68C, broth-dilution microtiter, read-out: MIC
[29] = E. coli EC14, agar dilution, read-out: MIC
[30] = E. coli N10, agar dilution, read-out: MIC
[31] = K. pneumoniae KAE, agar dilution, read-out: MIC
[32] = S. epidermidis EPI1, agar dilution, read-out: MIC
[33] = E. coli TEM, agar dilution, read-out: MIC

| SMILES | MIC [2] [µg/mL] | MIC (Shigella sonnei N9) [µg/mL] | MIC [3] [µg/mL] | MIC ([4]; V41) [µg/mL] | MIC [5] [µg/mL] | MIC ([6]; X400) [µg/mL] | MIC [8] [µg/mL] | MIC [9] [µg/mL] | MIC [10] [µg/mL] | MIC [11] [µg/mL] | MIC ([12]; C203) [µg/mL] | MIC (Mycoplasma gallisepticum; [23]) [µg/mL] | MIC [13] [µg/mL] | MIC [14] [µg/mL] | MIC [15] [µg/mL] | MIC [16, 24] [µg/mL] | MIC [17, 25] [µg/mL] | MIC [18, 26] [µg/mL] | MIC (Streptococcus sp. 80) [µg/mL] | activity against these strains (these strains) | also measured |
| --- | --- | --- | --- | --- | --- | --- | --- | --- | --- | --- | --- | --- | --- | --- | --- | --- | --- | --- | --- | --- | --- |
| CCC1OC(=O)CC(O)C(C)C(OC2OC(C)C(O)C(N(C)C)C2O)C(CC=O)CC(C)C(=O)C=CC(C)=CC1CSc1n[nH]c(=O)c(=O)n1C (stereo not drawn) [Compound 6, 23-Deoxo-23-(1H-5,6-dioxo-4-methyl-1,2,4-triazin-3-yl)thio-OMT] | 64 (≈ 86.6 µM) | > 128 | 4 (≈ 5.41 µM) | 4 (≈ 5.41 µM) | 4 (≈ 5.41 µM) | 8 (≈ 10.8 µM) | 8 (≈ 10.8 µM) | 16 (≈ 21.7 µM) | 32 (≈ 43.3 µM) | 32 (≈ 43.3 µM) | 1 (≈ 1.35 µM) | 6.25 (≈ 8.46 µM) | 50 (≈ 67.7 µM) | 50 (≈ 67.7 µM) | 50 (≈ 67.7 µM) | 25 (≈ 33.8 µM) | 25 (≈ 33.8 µM) | 25 (≈ 33.8 µM) | 6.25 (≈ 8.46 µM) | did not show activity | MIC (Escherichia coli EC14; EC14): > 128 µg/mL; MIC (Escherichia coli N10; N10): > 128 µg/mL; MIC [1]: > 128 µg/mL; MIC ([7]; EPI1): 4 µg/mL (≈ 5.41 µM); MIC (Streptococcus Group 9960; Streptococcus Group 9960, agar dilution, read-out: MIC): 16 µg/mL (≈ 21.7 µM); MIC (Escherichia coli TEM): > 128 µg/mL; MIC (Mycoplasma hyorhinis; M. hyorhinis, broth-dilution microtiter, read-out: MIC): 25 µg/mL (≈ 33.8 µM); MIC (Mycoplasma synoviae; M. synoviae, broth-dilution microtiter, read-out: MIC): 3.12 µg/mL (≈ 4.22 µM); MIC [19, 27]: 25 µg/mL (≈ 33.8 µM); MIC [20, 28]: 25 µg/mL (≈ 33.8 µM); MIC (Staphylococcus aureus; S. aureus, broth-dilution microtiter, read-out: MIC): 12.5 µg/mL (≈ 16.9 µM); ED50 ([21]; C203, po, read-out: ED50, Oral): > 100 mg/kg; ED50 ([21]; C203, sc, mice, subcutaneous, doses given 1 and 4 hours postinfection, read-out: ED50, Subcutaneous): 13.6 mg/kg |
| CCC1OC(=O)CC(O)C(C)C(OC2OC(C)C(O)C(N(C)C)C2OC(C)=O)C(CC=O)CC(C)C(=O)C=CC(C)=CC1C[n+]1ccccc1 (stereo not drawn) [Compound 1, 2'-O-Acetyl-23-deoxy-23-pyridinium-OMT Trifluoro methanesulfonate] | 64 | > 128 | 32 |  | 32 |  | 64 | 64 |  |  |  | 25 | > 50 | > 50 | > 50 |  |  |  | 12.5 | did not show activity | MIC (Escherichia coli EC14; [29]): > 128 µg/mL; MIC (Escherichia coli N10; [30]): > 128 µg/mL; MIC [1, 31]: > 128 µg/mL; MIC ([4]; S. aureus V41, penicillin-resistant strain, agar dilution, read-out: MIC): 64 µg/mL; MIC ([6]; S. aureus X400, methicillin-resistant strain, agar dilution, read-out: MIC): 64 µg/mL; MIC [7, 32]: 32 µg/mL; MIC (Streptococcus Group 9960): 64 µg/mL; MIC (Escherichia coli TEM; [33]): > 128 µg/mL; MIC ([12]; S. pyogenes C203, agar dilution, read-out: MIC): 32 µg/mL; MIC [22]: 8 µg/mL; MIC (Mycoplasma hyorhinis): 50 µg/mL; MIC (Mycoplasma synoviae): 12.5 µg/mL; MIC ([16]; 17E): > 50 µg/mL; MIC ([17]; 22A): > 50 µg/mL; MIC ([18]; 40G): > 50 µg/mL; MIC ([19]; 60A): > 50 µg/mL; MIC ([20]; 68C): > 50 µg/mL; MIC (Staphylococcus aureus): 50 µg/mL |
| C=C1C=CC(=O)C(C)CC(CC=O)C(OC2OC(C)C(O)C(N(C)C)C2O)C(C)C(O)CC(=O)OC(CC)C2CC12 (stereo not drawn) [Compound 16] | 64 (≈ 110 µM) | > 128 | 4 (≈ 6.9 µM) | 4 (≈ 6.9 µM) | 4 (≈ 6.9 µM) | 4 (≈ 6.9 µM) | 4 (≈ 6.9 µM) | 4 (≈ 6.9 µM) | 64 (≈ 110 µM) | 64 (≈ 110 µM) | 1 (≈ 1.72 µM) |  | > 50 | 50 (≈ 86.2 µM) | 50 (≈ 86.2 µM) | 25 (≈ 43.1 µM) | 25 (≈ 43.1 µM) | 25 (≈ 43.1 µM) | 6.25 (≈ 10.8 µM) | did not show activity | MIC (Escherichia coli EC14; [29]): > 128 µg/mL; MIC (Escherichia coli N10; [30]): > 128 µg/mL; MIC [1, 31]: > 128 µg/mL; MIC [7, 32]: 4 µg/mL (≈ 6.9 µM); MIC (Streptococcus Group 9960): 8 µg/mL (≈ 13.8 µM); MIC (Escherichia coli TEM; [33]): > 128 µg/mL; MIC (Mycoplasma gallisepticum): 1.56 µg/mL (≈ 2.69 µM); MIC (Mycoplasma hyorhinis): 12.5 µg/mL (≈ 21.6 µM); MIC (Mycoplasma synoviae): 12.5 µg/mL (≈ 21.6 µM); MIC [19, 27]: 25 µg/mL (≈ 43.1 µM); MIC [20, 28]: 25 µg/mL (≈ 43.1 µM); MIC (Staphylococcus aureus): 12.5 µg/mL (≈ 21.6 µM); ED50 ([21]; C203, po, read-out: ED50, Oral): > 100 mg/kg; ED50 ([21]; C203, sc, read-out: ED50, Subcutaneous): > 30 mg/kg |
